# Experimental data taken from publication PMC6792352, “Limited Chemical Structural Diversity Found to Modulate Thyroid Hormone Receptor in the Tox21 Chemical Library” (Environmental Health Perspectives, 2019).
# Where a name gives a salt, the structure may show the parent alone.
# Assay: in vitro
# Details: rat, gh3-tre-luc cells, AC50 (uM) modified / 1000
row,Compound,CC50 at 24 h [µM]
1,O=C1NC2CCCCN2C12CCN(CCCN1c3ccccc3CCc3ccc(Cl)cc31)CC2 (stereo not shown) [Mosapramine],5.62
2,CCc1ccc(O)c(OC)c1 [4-Ethyl-2-methoxyphenol],> 90
3,CCCOC(=O)CC [Propyl propionate],> 90
4,"CC1=NN(c2cccc(S(=O)(=O)O)c2)C(=O)C1 [3-(3-Methyl-5-oxo-4,5-dihydro-1H-pyrazol-1-yl)benzenesulfonic acid]",> 90
5,C=CCc1ccc(OC)c(OC)c1 [Methyleugenol],> 90
6,Cc1cccc(C)c1NC(=O)CN1CCCCCC1 [Pincainide],> 50
7,CO/N=C(\C(=O)N[C@@H]1C(=O)N2C(C(=O)[O-])=C(C[n+]3cccc4c3CCCC4)CS[C@H]12)c1csc(N)n1 [Cefquinome sulfate],> 50
8,Cc1c(O)c(=O)ccn1C [Deferiprone],> 50
9,NC1CCN(c2nc3c(cc2F)c(=O)c(C(=O)O)cn3-c2ccc(F)cc2F)C1 (stereo not shown) [Tosufloxacin toluenesulfonic acid],> 50
10,CC(C)NCC(O)c1cc(O)cc(O)c1 (stereo not shown) [Orciprenaline sulfate],> 50
11,C#C[C@]1(O)CC[C@H]2[C@@H]3CCC4=CC(=O)CC[C@@H]4[C@H]3CC[C@@]21CC [Levonorgestrel],> 90
12,CCOC(=O)[C@H](CCc1ccccc1)N[C@@H](C)C(=O)N1[C@H](C(=O)O)C[C@@H]2CCC[C@@H]21 [Ramipril],> 50
13,CCOC(=O)C1=C(C)NC(C)=C(C(=O)OC)C1c1cccc(Cl)c1Cl (stereo not shown) [Felodipine],13.5
14,CCN1/C(=C/C=C/C=C/c2sc3ccccc3[n+]2CC)Sc2ccccc21 [Dithiazanine iodide],4.14
15,COCCOC(=O)C1=C(C)NC(C)=C(C(=O)OC/C=C/c2ccccc2)C1c1cccc([N+](=O)[O-])c1 (stereo not shown) [Cilnidipine],12.4
16,CCCCCCCN [Heptylamine],> 90
17,Oc1c(Br)cc(Br)c2cccnc12 [Broxyquinoline],24.9
18,Cn1nnc2c(C(N)=O)ncn2c1=O [Temozolomide],> 50
19,COC(=O)N(OC)c1ccccc1COc1ccn(-c2ccc(Cl)cc2)n1 [Pyraclostrobin],59.8
20,CC1(C)S[C@@H]2[C@H](NC(=O)C(C(=O)O)c3ccsc3)C(=O)N2[C@H]1C(=O)O (stereo partly shown) [Ticarcillin disodium],> 50
21,Cc1ccc(C(C)C)cc2c(C)ccc1-2 [Guaiazulene],> 50
22,CCCCCCC(=O)OCC [Ethyl heptanoate],> 90

row,Compound,CC50 at 24 h [µM]
1,CCC(C)OC(C)CC (stereo not shown) [Bis(2-butyl) ether],> 100
2,C=C[Si](OC)(OC)OC [Vinyltrimethoxysilane],> 90
3,C=CCON=C(CCC)C1C(=O)CC(C)(C)C(C(=O)OC)C1=O (stereo not shown) [Alloxydim-sodium],> 90
4,Oc1ncc(N(CCCl)CCCl)c(O)n1 [Uracil mustard],> 50
5,COCCOC(=O)CC#N [2-Methoxyethyl cyanoacetate],> 90
6,C=Cc1ccc(OC(C)=O)cc1 [4-Ethenylphenyl acetate],> 90
7,CCCCC(CC)COC(=O)CS (stereo not shown) [2-Ethylhexyl sulfanylacetate],> 90
8,CCCCCCCCCCCCN1CCOCC1 [4-Dodecylmorpholine],> 90
9,Oc1ccc(Cl)c2c1CCC2 [Chlorindanol],> 50
10,NC/C=C/C(=O)O [(E)-4-amino-2-butenoic acid],> 50
11,O=C(C(=O)c1ccco1)c1ccco1 [alpha-Furil],> 90
12,Nc1cccc(Cl)c1 [3-Chloroaniline],> 90
13,COc1cc(O)cc(O)c1 [Flamenol],> 50
14,CCCCC(CC)C(=O)OC(C)C (stereo not shown) [Propan-2-yl 2-ethylhexanoate],> 90
15,"c1ccc2c(c1)ccc1cc3c(ccc4ccccc43)cc12 [Dibenz(a,h)anthracene]",> 50
16,CCCOC(C(=O)OC1CCN(C)CC1)(c1ccccc1)c1ccccc1 [Propiverine hydrochloride],14.7
17,CCCCCCCCCCCCCCCCCC(=O)OCC(O)CO (stereo not shown) [Glycerol 1-monostearate],> 50
18,CO[C@H]1O[C@@H]2O[C@@]3(C)CC[C@H]4[C@H](C)CC[C@@H]([C@H]1C)[C@@]24OO3 [Artemether],> 50
19,CCC/C=C(/C=O)CC [2-Ethyl-2-hexenal],> 90
20,O=C(O)CCC(=O)c1ccc(-c2ccccc2)cc1 [Fenbufen],> 20
21,O=C1CN2Cc3c(ccc(Cl)c3Cl)N=C2N1 [Anagrelide hydrochloride],> 50
22,CC(C(=O)O)c1cccc(C(=O)c2ccccc2)c1 (stereo not shown) [Ketoprofen],> 90

row,Compound,CC50 at 24 h [µM]
1,CC(=O)OCC(=O)[C@@]1(OC(C)=O)[C@@H](C)C[C@H]2[C@@H]3C[C@H](F)C4=CC(=O)C=C[C@]4(C)[C@@]3(F)[C@@H](O)C[C@@]21C [Diflorasone diacetate],> 50
2,O=C(O)CCn1c2c(c3ccccc31)C[C@H](NS(=O)(=O)c1ccc(F)cc1)CC2 [Ramatroban],> 50
3,NC(=O)c1cccnc1 [Niacinamide],> 90
4,CCN(CC)CCNC(=O)c1ccc(NC(C)=O)cc1 [Acecainide hydrochloride],> 50
5,CC(C)=CCC[C@](C)(O)[C@@H]1CC=C(C)CC1 [Levomenol],> 90
6,Cc1c(N(C)C)c(=O)n(-c2ccccc2)n1C [4-Dimethylaminoantipyrine],> 50
7,CCCSC(=O)Cl [S-(Propyl) chlorothioformate],> 90
8,CCOc1ccc(/N=C(\C)Nc2ccc(OCC)cc2)cc1 [Phenacaine],> 50
9,CC(C)(C)S [2-Methyl-2-propanethiol],> 90
10,"O=C=Nc1ccc(Cl)c(Cl)c1 [3,4-Dichlorophenyl isocyanate]",> 90
11,"O=C(Nc1ccc([N+](=O)[O-])cc1)Nc1ccc([N+](=O)[O-])cc1 [4,4'-Dinitrodiphenylurea]",> 50
12,C=CC(=C)C [Isoprene],> 90
13,"C[C@@H](O)[C@@H](C)O [2,3-Butanediol]",> 100
14,CN(C)C(=O)C(CCN1CCC(O)(c2ccc(Cl)cc2)CC1)(c1ccccc1)c1ccccc1 [Loperamide],6.34
15,O=C(O)[C@@H]1[C@H]2C[C@H]3c4[nH]c5ccccc5c4CCN3C[C@@H]2CC[C@@H]1O [Yohimbic acid monohydrate],> 20
16,CC(=O)CC(=O)c1ccccc1 [1-Benzoylacetone],> 90
17,CCCCCCCCCCOC(C)=O [Decyl acetate],> 90
18,CCCCCCCCCCCC[N+](C)(C)C [Dodecyltrimethylammonium chloride],15.8
19,"O=S(=O)(c1ccc(Cl)cc1)c1ccc(Cl)cc1 [4,4'-Dichlorodiphenyl sulfone]",> 90
20,O=C(O)[C@H]1/C(=C/CO)O[C@@H]2CC(=O)N21 [Clavulanate lithium],> 50
21,C=CC(=O)OCCC(=O)O [2-Carboxyethyl acrylate],> 100

# Same assay, conditions: rat, gh3-tre-luc cells, AC50 (uM) modified / 1000, Tox21_110001=Tox21_110330; viability, 1 nM T3 present, 24 h
row,Compound,CC50 at 24 h [µM]
1,CCC(=O)O[C@H]1CC[C@H]2[C@@H]3CCC4=CC(=O)CC[C@]4(C)[C@H]3CC[C@]12C [Testosterone propionate],> 20

# Same assay, conditions: rat, gh3-tre-luc cells, AC50 (uM) modified / 1000, Tox21_110001=Tox21_110442; viability, 1 nM T3 present, 24 h
row,Compound,CC50 at 24 h [µM]
1,C[C@@H]1O[C@@H](O[C@@H]2C=C3CC[C@@H]4[C@H](CC[C@]5(C)[C@@H](c6ccc(=O)oc6)CC[C@]45O)[C@@]3(C)CC2)[C@H](O)[C@H](O)[C@H]1O [Proscillaridin],> 20

# Same assay, conditions: rat, gh3-tre-luc cells, AC50 (uM) modified / 1000, Tox21_110001=Tox21_112428; viability, 1 nM T3 present, 24 h
row,Compound,CC50 at 24 h [µM]
1,CN1CCCC(=C(c2cccs2)c2cccs2)C1 [Tipepidine],> 50

# Same assay, conditions: rat, gh3-tre-luc cells, AC50 (uM) modified / 1000, Tox21_110001=Tox21_112818; viability, 1 nM T3 present, 24 h
row,Compound,CC50 at 24 h [µM]
1,"C[C@H]1N=C(N)O[C@H]1c1ccccc1 (stereo in doubt) [(4R,5S)-4-methyl-5-phenyl-4,5-dihydro-1,3-oxazol-2-amine]",> 90

# Same assay, conditions: rat, gh3-tre-luc cells, AC50 (uM) modified / 1000, Tox21_110001=Tox21_112834; viability, 1 nM T3 present, 24 h
row,Compound,CC50 at 24 h [µM]
1,C[C@@H]1[C@@H]2Cc3ccc(O)cc3[C@@]1(C)CCN2CCc1ccccc1 [(+)-Phenazocine hydrobromide],67.4

# Same assay, conditions: rat, gh3-tre-luc cells, AC50 (uM) modified / 1000, Tox21_110001=Tox21_200342; viability, 1 nM T3 present, 24 h
row,Compound,CC50 at 24 h [µM]
1,"OCC(Cl)CCl (stereo not shown) [2,3-Dichloro-1-propanol]",> 90

# Same assay, conditions: rat, gh3-tre-luc cells, AC50 (uM) modified / 1000, Tox21_110001=Tox21_200642; viability, 1 nM T3 present, 24 h
row,Compound,CC50 at 24 h [µM]
1,CC(C)N(C(=O)SC/C(Cl)=C/Cl)C(C)C [Diallate],92.9

# Same assay, conditions: rat, gh3-tre-luc cells, AC50 (uM) modified / 1000, Tox21_110001=Tox21_200853; viability, 1 nM T3 present, 24 h
row,Compound,CC50 at 24 h [µM]
1,Cc1cccc(C#N)c1 [3-Methylbenzonitrile],> 90

# Same assay, conditions: rat, gh3-tre-luc cells, AC50 (uM) modified / 1000, Tox21_110001=Tox21_201546; viability, 1 nM T3 present, 24 h
row,Compound,CC50 at 24 h [µM]
1,Cc1ccc(OP(=O)(Oc2ccc(C)cc2)Oc2ccc(C)cc2)cc1 [Tricresyl phosphate],> 90

# Same assay, conditions: rat, gh3-tre-luc cells, AC50 (uM) modified / 1000, Tox21_110001=Tox21_201566; viability, 1 nM T3 present, 24 h
row,Compound,CC50 at 24 h [µM]
1,COc1ccc(C=O)cc1OC [Veratraldehyde],> 90

# Same assay, conditions: rat, gh3-tre-luc cells, AC50 (uM) modified / 1000, Tox21_110001=Tox21_201592; viability, 1 nM T3 present, 24 h
row,Compound,CC50 at 24 h [µM]
1,O=C1C2(Cl)C3(Cl)C4(Cl)C(Cl)(Cl)C5(Cl)C3(Cl)C1(Cl)C5(Cl)C24Cl (stereo not shown) [Kepone],11.6

# Same assay, conditions: rat, gh3-tre-luc cells, AC50 (uM) modified / 1000, Tox21_110001=Tox21_202439; viability, 1 nM T3 present, 24 h
row,Compound,CC50 at 24 h [µM]
1,C=CCc1ccc2c(c1)OCO2 [Safrole],> 90

# Same assay, conditions: rat, gh3-tre-luc cells, AC50 (uM) modified / 1000, Tox21_110001=Tox21_300098; viability, 1 nM T3 present, 24 h
row,Compound,CC50 at 24 h [µM]
1,O=C1C2(Cl)C3(Cl)C4(Cl)C(Cl)(Cl)C5(Cl)C3(Cl)C1(Cl)C5(Cl)C24Cl (stereo not shown) [Kepone],10.7

# Same assay, conditions: rat, gh3-tre-luc cells, AC50 (uM) modified / 1000, Tox21_110001=Tox21_302270; viability, 1 nM T3 present, 24 h
row,Compound,CC50 at 24 h [µM]
1,CCC(=O)O[C@H]1CC[C@H]2[C@@H]3CCC4=CC(=O)CC[C@]4(C)[C@H]3CC[C@]12C [Testosterone propionate],55
